Test results as given in PubChem BioAssay (NCI).
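Tested at 5 concentrations; 48 h exposure; 96-well plates; endpoints linearly interpolated, else capped at highest concentration. The concentration for 50% growth inhibition is given as GI50. TGI marks complete inhibition of growth.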

Legend:
Assay in all cases: NCI tumour cell line growth inhibition, 48 h
[1] = test system: 786-0 renal
[2] = test system: A498 renal
[3] = test system: A549 NSCLC
[4] = test system: ACHN renal
[5] = test system: BT-549 breast
[6] = test system: CAKI-1 renal
[7] = test system: CCRF-CEM leukemia
[8] = test system: COLO 205 colon
[9] = test system: DU-145 prostate
[10] = test system: EKVX NSCLC
[11] = test system: HCC-2998 colon
[12] = test system: HCT-116 colon
[13] = test system: HCT-15 colon
[14] = test system: HL-60(TB) leukemia
[15] = test system: HOP-62 NSCLC
[16] = test system: HOP-92 NSCLC
[17] = test system: HS 578T breast
[18] = test system: HT29 colon
[19] = test system: IGROV1 ovarian
[20] = test system: K-562 leukemia
[21] = test system: KM12 colon
[22] = test system: LOX IMVI melanoma
[23] = test system: M14 melanoma
[24] = test system: MALME-3M melanoma
[25] = test system: MCF7 breast
[26] = test system: MDA-MB-231 breast
[27] = test system: MDA-MB-435
[28] = test system: MDA-MB-468 breast
[29] = test system: MOLT-4 leukemia
[30] = test system: NCI-H226 lung
[31] = test system: NCI-H23 lung
[32] = test system: NCI-H460 lung
[33] = test system: NCI-H522 lung
[34] = test system: NCI/ADR-RES ovarian
[35] = test system: OVCAR-3 ovarian
[36] = test system: OVCAR-4 ovarian
[37] = test system: OVCAR-5 ovarian
[38] = test system: OVCAR-8 ovarian
[39] = test system: PC-3 prostate
[40] = test system: RPMI-8226 leukemia
[41] = test system: RXF 393 renal
[42] = test system: SF-268 CNS
[43] = test system: SF-295 CNS
[44] = test system: SF-539 CNS
[45] = test system: SK-MEL-2 melanoma
[46] = test system: SK-MEL-28 melanoma
[47] = test system: SK-MEL-5 melanoma
[48] = test system: SK-OV-3 ovarian
[49] = test system: SN12C renal
[50] = test system: SNB-19 CNS
[51] = test system: SNB-75 CNS
[52] = test system: SR leukemia
[53] = test system: SW-620 colon
[54] = test system: T-47D breast
[55] = test system: TK-10 renal
[56] = test system: U251 CNS
[57] = test system: UACC-257 melanoma
[58] = test system: UACC-62 melanoma
[59] = test system: UO-31 renal

Work on `CCCn1c(=O)c2[nH]c(-c3ccc(OCc4nc5ccc(F)cc5[nH]4)cc3)nc2n(CCC)c1=O` yielded a GI50 [1] of 16.2 µM, a TGI [1] greater than 100 µM and a GI50 [2] of 3.36 µM. It also gave a TGI [2] of 21.3 µM, a GI50 [3] of 15.5 µM and a TGI [3] greater than 100 µM. For the same compound, the GI50 [4] was 14.9 µM, the TGI [4] was 50.1 µM and the GI50 [5] was 25 µM. It also gave a TGI [5] greater than 100 µM, a GI50 [6] of 15.9 µM and a TGI [6] of 62.4 µM. For the same compound, the GI50 [7] was 8.91 µM, the TGI [7] was greater than 100 µM and the GI50 [8] was 99.1 µM. It also gave a TGI [8] greater than 100 µM, a GI50 [9] of 41.5 µM and a TGI [9] greater than 100 µM. The GI50 [10] was 30.3 µM, the TGI [10] was greater than 100 µM and the GI50 [11] was greater than 100 µM. The TGI [11] was greater than 100 µM, the GI50 [12] was 22.4 µM and the TGI [12] was greater than 100 µM. The GI50 [13] was 30 µM, the TGI [13] was greater than 100 µM and the GI50 [14] was greater than 100 µM. The TGI [14] was greater than 100 µM, the GI50 [15] was 9.88 µM and the TGI [15] was greater than 100 µM. It also gave a GI50 [16] of 4.78 µM, a TGI [16] of 36.8 µM and a GI50 [17] of 4.1 µM. The TGI [17] was greater than 100 µM, the GI50 [18] was 26.9 µM and the TGI [18] was greater than 100 µM. The GI50 [19] was 16.5 µM, the TGI [19] was greater than 100 µM and the GI50 [20] was 8.81 µM. It also gave a TGI [20] greater than 100 µM, a GI50 [21] of 78.9 µM and a TGI [21] greater than 100 µM. For the same compound, the GI50 [22] was 15.9 µM, the TGI [22] was 46.9 µM and the GI50 [23] was 52 µM. For the same compound, the TGI [23] was greater than 100 µM, the GI50 [24] was 12.6 µM and the TGI [24] was 38.7 µM. It also gave a GI50 [25] of 8.54 µM, a TGI [25] of 93.2 µM and a GI50 [26] of 15.7 µM. For the same compound, the TGI [26] was 39.3 µM, the GI50 [27] was 25.1 µM and the TGI [27] was greater than 100 µM. It also gave a GI50 [28] of 4.75 µM, a TGI [28] of 40.9 µM and a GI50 [29] of 6.44 µM. It also gave a TGI [29] greater than 100 µM, a GI50 [30] of 11.2 µM and a TGI [30] of 36.9 µM. For the same compound, the GI50 [31] was 21 µM, the TGI [31] was greater than 100 µM and the GI50 [32] was 11.1 µM. It also gave a TGI [32] of 32.3 µM, a GI50 [33] of 8.29 µM and a TGI [33] greater than 100 µM. It also gave a GI50 [34] of 30.4 µM, a TGI [34] greater than 100 µM and a GI50 [35] of 15.1 µM. It also gave a TGI [35] of 67 µM, a GI50 [36] of 4.24 µM and a TGI [36] greater than 100 µM. The GI50 [37] was greater than 100 µM, the TGI [37] was greater than 100 µM and the GI50 [38] was 6.34 µM. It also gave a TGI [38] of 34 µM, a GI50 [39] of 5.96 µM and a TGI [39] greater than 100 µM. The GI50 [40] was 5.14 µM, the TGI [40] was greater than 100 µM and the GI50 [41] was 2.76 µM. For the same compound, the TGI [41] was 11.3 µM, the GI50 [42] was 25 µM and the TGI [42] was greater than 100 µM. It also gave a GI50 [43] of 4.64 µM, a TGI [43] of 65.6 µM and a GI50 [44] of 12.2 µM. For the same compound, the TGI [44] was 27.7 µM, the GI50 [45] was greater than 100 µM and the TGI [45] was greater than 100 µM. The GI50 [46] was 28.1 µM, the TGI [46] was greater than 100 µM and the GI50 [47] was 8.5 µM. The TGI [47] was 33.3 µM, the GI50 [48] was 21 µM and the TGI [48] was greater than 100 µM. The GI50 [49] was 16.5 µM, the TGI [49] was greater than 100 µM and the GI50 [50] was greater than 100 µM. The TGI [50] was greater than 100 µM, the GI50 [51] was 2.48 µM and the TGI [51] was 20.2 µM. For the same compound, the GI50 [52] was 22.3 µM, the TGI [52] was greater than 100 µM and the GI50 [53] was 37.2 µM. It also gave a TGI [53] greater than 100 µM, a GI50 [54] of 4.4 µM and a TGI [54] of 50.4 µM. For the same compound, the GI50 [55] was 24.4 µM, the TGI [55] was greater than 100 µM and the GI50 [56] was 17.3 µM. It also gave a TGI [56] greater than 100 µM, a GI50 [57] of 30.4 µM and a TGI [57] greater than 100 µM. It also gave a GI50 [58] of 12.3 µM, a TGI [58] greater than 100 µM and a GI50 [59] of 9.09 µM. For the same compound, the TGI [59] was 29 µM.
